The structures appear in SMILES notation. Read-outs that look alike come from different tables or passages of the source.

One experiment deals with HaCaT keratinocytes. Kind of experiment: Fluorescein diacetate cellular viability assay. The class given is cell-based. To be noted: Homo sapiens, light or radiation study, read after 24 h. As for the experimental part: A fluorescein diacetate cellular viability assay measuring the viability of HaCaT keratinocytes in response to treatment with compound 92 without irradiation (no light) and when irradiated (Light) was carried out as follows:
HaCaT keratinocyte cells were seeded in two 96 well plates and incubated for 24 h at 37° C. 5% CO2. The incubating media was removed and compound 92 was added at a range of concentrations, along with a dimethyl sulfoxide (DMSO) control, before the cells were incubated for one hour at 37° C. 5% CO2, whereupon one plate was irradiated at 405 nm for 5 min (72 mW/cm^2). Both plates were then incubated at 37° C. 5% CO2 for 24 h. The media was removed, and cells were washed with 1× phosphate buffered saline (PBS), then fluorescein diacetate (FDA) was added, and the cells were incubated at RT, in the dark, for 10 min. The fluorescein diacetate stain was then removed, and cells were washed with 1× phosphate buffered saline. The plates were read at 485/520 nm to determine cell viability at differing treatment concentrations of compound 92 with and without light exposure.

The next experiment deals with HDAC enzymes. Kind of experiment: Immunofluorescence imaging with anti-acetyl-H3 primary antibody (acetylated H3 histones). The note with it: HaCaT keratinocytes, compound at 5 μM. The class given is cell-based. As for the experimental part:
HaCaT or SCC-4 cells were seeded at 50,000 cells per well in sterile coverslip containing 6-well plates. The next day, cells were treated with the compound of interest for 30 minutes before “Light” treated cells were irradiated. The following day, cells were then fixed using 4% PFA, permeabilised using Triton X-100/Tween 20, blocked in BSA/goat serum (dependent on the antibodies) and stained with primary then secondary antibodies before coverslips were mounted on slides and imaged on a Zeiss LSCM 880.
Immunofluorescence imaging of HaCaT keratinocytes treated with compound 92 (5 μM) and ethanol (EtOH), and co-treated with an anti-acetyl-H3 primary antibody that detects the presence of acetylated H3 histones was carried out as follows:
[…] Cells were washed in phosphate buffered saline then fixed in 4% PFA. Cells were washed again with phosphate buffered saline before blocking and permeabilization with 0.3% triton 100-X/5% goat serum in phosphate buffered saline for 60 min. Cells were then washed with phosphate buffered saline and anti-acetyl-histone 3 antibody was added and incubated overnight at 4° C. Second antibody (Alexa-594 anti-rabbit) was added for 45 min before cells were washed again and mounted for imaging.
This delayed behaviour is indicative of an initial lag phase as compound 92 is enzymatically metabolised to the active form.

On to `COC(=O)/C=C/c1ccc(C#Cc2cnc(N3CCN(C(=O)CCCCCCC(=O)NOC(C)=O)CC3)s2)cn1` [compound 92, Methyl (2E)-3-(5-{2-[2-(4-{7-[(acetyloxy)carbamoyl]heptanoyl}piperazin-1-yl)-1,3-thiazol-5-yl]ethynyl}pyridin-2-yl)prop-2-enoate], for which the IC50 amounted to 0.69 µM in the experiment with HaCaT keratinocytes (1 h treatment, irradiated at 405 nm for 5 min (72 mW/cm^2), read-out: IC50 cell viability, light activation) and 5.5 µM with HaCaT keratinocytes (no irradiation, read-out: IC50 cell viability, without light activation). Also, in the experiment with HDAC enzymes (one hour), the “Acetylated H3 build-up (nuclear ring phenotype) after one hour” value is recorded as “characteristic nuclear ring phenotype”. The “Acetylated H3 build-up (nuclear ring phenotype) after ten minutes” value in the experiment with HDAC enzymes (ten minutes) is on record as “limited activity”.

For orientation: IC50 means the midpoint of a concentration-inhibition curve.

Source of the values: US12661405B2, “Protected HDAC (histone deacetylase) inhibitors” (LIGHTOX LIMITED, priority 2021, dated 2026).
